From patent US20050153998A1, “Tetrahydroisoquinoline or isochroman compounds” (priority 2003, published 2005)

Target: T1, human ORL1 receptor (Homo sapiens, UniProt P41146)
T1 construct: expressed in transfected cells; host or cells: HEK-293
Test: ORL1-receptor binding assay ([3H]nociceptin, SPA)
Settings: human ORL1 receptor transfected HEK-293 cell membranes, 0.4 nM [3H]nociceptin; read-out: IC50 value with regard to binding activity for the ORL1 receptor
Description: The human ORL1 receptor transfected HEK-293 cell membranes were incubated for 45 min at 22° C. with 0.4 nM [^3H]nociceptin, 1.0 mg of wheat germ agglutinin-coated SPA beads and various concentrations of test compounds in a final volume of 200 μl of 50 mM HEPES buffer pH7.4 containing 10 mM MgCl2 and 1 mM EDTA. Non-specific binding was determined by the addition of 1 μM unlabeled nociceptin. After the reaction, the assay plate was centrifuged at 1,000 rpm for 1 min and then the radioactivity was measured by a Liquid Scintillation Counter.
Each percent NSB thus obtained was graphed as a function of compound concentration. A sigmoidal curve was used to determine 50% bindings (i.e., IC50 values).

T1 sequence (P41146 whole entry): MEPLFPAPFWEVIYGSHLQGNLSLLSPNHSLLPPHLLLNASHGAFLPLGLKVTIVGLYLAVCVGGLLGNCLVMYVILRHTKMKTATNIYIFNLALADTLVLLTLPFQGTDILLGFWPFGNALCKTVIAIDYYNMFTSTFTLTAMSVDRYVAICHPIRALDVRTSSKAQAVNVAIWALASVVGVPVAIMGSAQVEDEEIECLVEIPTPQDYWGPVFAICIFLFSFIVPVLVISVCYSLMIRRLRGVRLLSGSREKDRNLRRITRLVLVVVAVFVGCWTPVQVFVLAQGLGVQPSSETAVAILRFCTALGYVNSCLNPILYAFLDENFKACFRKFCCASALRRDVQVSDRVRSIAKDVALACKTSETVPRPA

CN1C(=O)C2(CCN(CC3Cc4c(F)ccc(O)c4CN3)CC2)c2ccccc21 (centres unmarked) [Example 22, 1′-[(5-Fluoro-8-hydroxy-1,2,3,4-tetrahydroisoquinolin-3-yl)methyl]-1-methylspiro[indole-3,4′-piperidin]-2(1H)-one]
IC50: 4.9 nM

CN1CC2(CCN(CC3Cc4c(F)ccc(O)c4CN3)CC2)c2ccccc21 (centres unmarked) [Example 11, 5-Fluoro-3-[(1-methyl-1,2-dihydro-1′H-spiro[indole-3,4′-piperidin]-1′-yl)methyl]-1,2,3,4-tetrahydroisoquinolin-8-ol]
IC50: 7.4 nM
